In patent US20240293563A1, “GLP-1 RECEPTOR LIGAND MOIETY CONJUGATED OLIGONUCLEOTIDES AND USES THEREOF” (priority 2017, published 2024):
k = constrained ethyl (cEt); d = 2'-deoxy (DNA)

Key:
[1] = tested on: MALAT1; assay: MALAT1 in situ hybridization in beta islet cells after i.v. GLP-1 ASO conjugates with various linkers; format: in vivo, mouse; conditions: male C57BL/6 mice; intravenous 0.6 μmol/kg/week once a week for three weeks; 72 hours after final injection
[2] = tested on: MALAT1 mRNA; assay: Dose dependent antisense inhibition of MALAT1 in WT HEK293 cells; format: cell-based, human; conditions: approximately 24 hrs, qRT-PCR normalized to RPLP0
[3] = tested on: MALAT1 mRNA; assay: Dose dependent antisense inhibition of MALAT1 in hGLP1R-HEK cells; format: cell-based, human; conditions: approximately 24 hrs, qRT-PCR normalized to RPLP0
Method: The hGLP1R-HEK cell line was generated by expressing hGLP1R in Flp-IN™ 293 cells. Cultured hGLP1R-HEK cells were seeded at a density 30,000 cells per well in 96 well plates and saline, 100 nM or 10 μM of unconjugated parent antisense oligonucleotide ISIS 556089 targeted to MALAT1 described above or ISIS 776102 (nucleobase sequence: […]) (SEQ ID NO: 64) targeted to FOXO1, or corresponding GLP-1 peptide conjugated antisense oligonucleotides (ISIS 816385 targeted to MALAT1 described above or ION 913193 targeted to FOXO1 described above) for approximately 24 hrs. After the treatment period, cells were harvested, the mRNA isolated and adjusted to total RNA content as measured by nanadrop UV-Vis spectrophotometer. MALAT1 or FOXO1 mRNA levels were measured by quantitative real-time PCR and normalized to the mRNA levels of the house keeping gene (RPLP0) in the same samples. Human MALAT1 mRNA levels were measured using gene expression assays HS00273907 and FOXO1 mRNA levels were measured using assay Hs01054576 (Applied Biosystems). The mRNA level of the house keeping gene RPLP0 was measured using a primer probe set with forward sequence […] CAT […] (SEQ ID NO: 66), reverse sequence […] (SEQ ID NO: 67). […]
After the treatment period cells were harvested, mRNA isolated and MALAT1 mRNA levels measured by quantitative real-time PCR using the primer probe set as described herein (Example 7). […]

[4] = tested on: MALAT1; assay: Effect of peptide composition and attachment point on peptide-conjugated ASO activity in LVX-GLP1R cells; format: cell-based, human; conditions: 7 doses in a 4-fold dilution series, MALAT1 RNA
[5] = tested on: MALAT-1; assay: Dose-dependent reduction of MALAT-1 expression in LVX-GLP1R cells; format: cell-based, human; conditions: approximately 24 hours; read-out: IC50 (MALAT-1 expression in GLP1R HEK cells)
Method: HEK cells stably expressing FLAG-tagged GLP1R were generated by infecting HEK 293 cells with FLAG-tagged GLP1R containing lentivirus produced by transfection of 293T cells with pLVX-IRES-Puro (Clontech Laboratories Inc., Mountainview, CA) harboring the FLAG-GLP1R insert. Infected cells were selected with puromycin (2 μg/ml) and then analyzed for receptor expression by western blot and immunofluorescence. Cultured GLP1R cells were plated at a density of 10,000 cells per well and treated with 0.3, 1, 3, 9, 27, 82, 247, 741, 2,222, 6,667, and 20,000 nM modified oligonucleotide for approximately 24 hours. After the treatment period, total RNA was prepared using an RNeasy mini kit (Qiagen, Valencia, CA, USA) and qRT-PCR was performed using the primer probe set RTS2739 (forward sequence: […] (SEQ ID NO: 74), reverse sequence: […] (SEQ ID NO: 75), probe sequence: […] (SEQ ID NO: 76). Briefly, ˜50 ng total RNA in 5 d water was mixed with 0.3 d primer probe sets containing forward and reverse primers (10 μM of each) and fluorescently labeled probe (3 μM), 0.3 W RT enzyme mix (Qiagen), 4.4 d RNase-free water, and 10 d of 2×PCR reaction buffer in a 20 d reaction. Reverse transcription was performed at 48° C. for 10 min, 40 cycles of PCR were conducted at 94° C. for 20 s, and 60° C. for 20 s within each cycle, using StepOne Plus RT-PCR system (Applied Biosystems, Phoenix, AZ, USA). The mRNA levels were normalized to the amount of total RNA present in each reaction as determined by Ribogreen assay (Life Technologies) and normalized to the saline control (100% expression).

[6] = tested on: MALAT1 mRNA; assay: MALAT1 mRNA in isolated islets and liver 72 hrs after single subcutaneous dose; format: in vivo, mouse; conditions: single subcutaneous injection 0.01, 0.1 or 1 μmol/kg
Method: (§1) Pancreatic islets were isolated by collagenase digestion from pancreas collected from exsanguinated 12 to 15 weeks old female C57BL/6Crl mice. Islets were maintained in tissue culture until use. Islet were dissociated into single cells by shaking in media containing a low extracellular calcium concentration. 10 to 20 intact or dissociated islets were plated on plastic Petri Dishes and treated with 10 μM of antisense oligonucleotides for approximately 24 hrs. After the treatment period cells were harvested, RNA isolated, adjusted to total RNA content, as measured by RIBOGREEN®. MALAT1 or FOXO1 mRNA levels measured by quantitative real-time PCR. Mouse Malat1 mRNA levels was measured using gene expression assay Mm01227912_s1 from Applied Biosystems, whereas mouse FOXO1 mRNA levels was measured using a primer probe set with forward sequence […] All data was normalized to the mRNA level of the house keeping gene (RPLP0) in the same sample, measured using a primer probe set with forward sequence […]
(§2) All animals were sacrificed 72 hrs after last dose.

[7] = tested on: MALAT1; assay: MALAT1 expression in pancreas by in situ hybridization (RNAscope); format: in vivo, mouse; conditions: 2 μmol/kg; subcutaneous or intravenous (ISIS 556089 subcutaneous only); 72 hrs after last dose
Text: Female C57BL/6Crl mice were assigned to five treatment groups. […] All animals were sacrificed approximately 72 hrs after last dose, and pancreas harvested for ex vivo analysis of uptake of antisense oligonucleotides by immunohistochemistry.
Female C57BL/6Crl mice were assigned to five treatment groups as described herein (Example 11) All animals were sacrificed approximately 72 hrs after last dose, and pancreas harvested for ex vivo analysis of MALAT1 expression by in situ hybridization.
The in situ mRNA amplification and labelling process was performed on the Ventana Discovery ULTRA, an Automated ISH platform(Ventana Medical System, Inc) using the RNAscope® VS Assay based on Advanced Cell Diagnostics (ACD). Customized probes were obtained from ACD for the detection of MALAT1 mRNA, and various parameters were tested to optimize the novel RNAscope method for ISH. The signal was amplified using multiple steps, followed by labeled probes and detected using the RNAscope® 2.5 VS Reagent Kit-RED. Stained slides were analyzed under a standard bright-field microscope.

[8] = tested on: MALAT1; assay: In situ hybridization of MALAT1 (QuantiGene ViewRNA) in mouse tissues after intravenous ASO; format: in vivo
Text: NO: 63) or a GLP-1 conjugated MALAT1 ASO (ISIS 816385) described in Example 1 at concentrations of 1.8. 0.6, or 0.2 μmol/kg. […] MALAT1 expression was detected using the QuantiGene ViewRNA tissue assay (Affymetrix, cat. No. QVT0011). Species-specific MALAT1 probes were purchased from Affymetrix (cat. No. VB-11110-01/mouse; VF1-13963/monkey). In brief, mouse tissues were fixed in 10% neutral-buffered formalin and embedded into paraffin and sectioned into […]. After deparaffinization, the tissue slides were boiled in Affymetrix pretreatment solution for 10-30 minutes followed by treatment with protease at 40° C. for 10 to 40 minutes depending on tissue. The MALAT1 RNA probe was used at a 1:40 dilution and was incubated with sample at 40° C. for 120 minutes. After washing, the MALAT1 RNA/probe complex was hybridized with preamplifier, amplifier, and AP-oligonucleotides at 40° C. for 25, 15, and 15 minutes, respectively. After removal of free AP oligonucleotide by washing in PBS, the slide was incubated with Fast Red substrate at room temperature for 30 minutes. The tissue images were acquired using an Aperio scanner. Hung et al., 2013 Nuc Acid Ther. 369-78. To determine a dose response of a GLP-1 conjugated MALAT1 ASO (ISIS 816385) described in Example 1 on pancreatic MALAT1 expression, male C57BL/6 mice fed a chow diet received a single intravenous injection of ISIS 816385 or an unconjugated MALAT1 ASO (ISIS 556089) described above at concentrations of 0.2, 0.06, and 0.02 μmol/kg. MALAT1 expression was detected using the QuantiGene ViewRNA tissue assay described above.

[9] = tested on: FOXO1 mRNA; assay: FOXO1 mRNA in isolated islets and liver 72 hrs after single subcutaneous dose; format: in vivo, mouse; conditions: single subcutaneous injection 0.01 or 1 μmol/kg
Method: as §1, §2

[10] = tested on: FOXO1 mRNA; assay: FOXO1 mRNA in isolated islets and liver after 6 weeks repeated administration to ob/ob mice; format: in vivo, mouse; conditions: male ob/ob mice; 0.1 μmol/kg once weekly for 6 weeks; 120 hrs after last dose
Method: Pancreatic islets were isolated by collagenase digestion from pancreas collected from exsanguinated 12 to 15 weeks old female C57BL/6Crl mice. Islets were maintained in tissue culture until use. Islet were dissociated into single cells by shaking in media containing a low extracellular calcium concentration. 10 to 20 intact or dissociated islets were plated on plastic Petri Dishes and treated with 10 μM of antisense oligonucleotides for approximately 24 hrs. After the treatment period cells were harvested, RNA isolated, adjusted to total RNA content, as measured by RIBOGREEN®. MALAT1 or FOXO1 mRNA levels measured by quantitative real-time PCR. […] All data was normalized to the mRNA level of the house keeping gene (RPLP0) in the same sample, measured using a primer probe set with forward sequence […] NO: 71), reverse sequence […] NO: 72) and probe sequence […] NO: 73). Male ob/ob mice (B6.V-Lepob/OlaHsd, Harlan) were assigned to five treatment groups receiving either vehicle, 0.1 μmol/kg ISIS 776102, 0.1 μmol/kg ION 913195, 0.03 ION 913193 or 1 μmol/kg ION 913193. All animals were treated once weekly for 6 weeks. Approximately 120 hrs after last dose all animals were sacrificed, liver samples collected and pancreatic islets isolated, as described herein (Example 9), for mRNA analysis. FOXO1 mRNA levels were quantified as described herein (Example 9) and mRNA levels expressed relative to housekeeping gene in each sample (RPLP0).

[11] = tested on: FOXO1 mRNA; assay: FOXO1 mRNA in cultured mouse primary islets of Langerhans treated with ASO; format: cell-based; conditions: for Islet FOXO1 mRNA levels relative to control (RPLP0): percent of untreated cells, 1 μM ASO 3 hrs every 24 hrs
Method: Pancreatic islets were isolated by collagenase digestion from pancreas collected from exsanguinated 12 to 15 weeks old female C57BL/6Crl mice. Islets were maintained in tissue culture until use. Islet were dissociated into single cells by shaking in media containing a low extracellular calcium concentration. 10 to 20 intact or dissociated islets were plated on plastic Petri Dishes and treated with 10 μM of antisense oligonucleotides for approximately 24 hrs. After the treatment period cells were harvested, RNA isolated, adjusted to total RNA content, as measured by RIBOGREEN®. MALAT1 or FOXO1 mRNA levels measured by quantitative real-time PCR. […] All data was normalized to the mRNA level of the house keeping gene (RPLP0) in the same sample, measured using a primer probe set with forward sequence […] NO: 71), reverse sequence […] NO: 72) and probe sequence […] NO: 73). Pancreatic islets were isolated by collagenase digestion from pancreas collected from euthanized 12 to 15 weeks old female B6.Cg-Lepob/J mice and maintained in tissue culture until use. 150 intact islets were placed in plastic Petri Dishes and treated with 1 μM of antisense oligonucleotides for 3 hrs every 24 hrs and harvested after approximately 24 hrs, 48 hrs or 96 hrs total treatment time respectively. After the treatment period, islets were harvested, and half of the islets were used to measure FOXO1 mRNA levels as described herein (Example 9). Half of the islets were homogenized in M-PER protein extraction reagent (Thermo Scientific) containing a protease inhibitor cocktail (Complete Mini and phosphoSTOP, Roche Diagnostics). The protein content of lysates were quantitated using BCA Assay Reagent (Pierce). […] For the anti-FoxO1 antibody, the secondary antibody was HRP-conjugated polyclonal goat anti-Rabbit P0448 (DAKO) and for the anti-α-tubulin antibody, the secondary antibody was HRP-conjugated polyclonal goat anti-mouse P0447 (DAKO). Enhanced chemiluminescence reagents (Pierce) were used for detection.

Substance: ISIS 556089: unconjugated parent 3-10-3 cEt ASO targeting murine MALAT1, nucleobase sequence GCATTCTAATAGCAGC (SEQ ID NO: 63) (sugars from the 5' end k3 d10 k3, backbone and methylation of C not given here) [reference compound]
- MALAT1 expression in beta islet cells compared to saline control (in situ hybridization) [1]: not
- IC50 [2]: 0.74 µM
- IC50 [3]: 0.87 µM
- IC50 [4]: 3.82 µM
- IC50 [5]: 3.97 µM
- antisense inhibition of MALAT1 in islet of Langerhans [6]: No significant antisense inhibition
- MALAT1 expression in the pancreatic islet of Langerhans [7]: not reduced
- effect in liver (MALAT1 in situ hybridization) ([8]; Study 2, single intravenous injection, any of the doses 0.2, 0.06, 0.02 μmol/kg): No observable effect
- MALAT1 expression in pancreatic beta islet cells (in situ hybridization) ([8]; male C57BL/6 mice, 2 intravenous injections of 1.8, 0.6 or 0.2 μmol/kg, 72 hours after final injection): not

Substance: ISIS 776102: unconjugated parent antisense oligonucleotide targeted to FOXO1, nucleobase sequence TCTTCTTAAAATACCC (SEQ ID NO: 64) (listed as DNA, further chemistry not given here) [reference compound]
- antisense inhibition of FOXO1 in islet of Langerhans [9]: No significant antisense inhibition
- antisense inhibition of FOXO1 in islet of Langerhans [10]: No significant antisense inhibition
- reduction in FOXO1 mRNA ([11]; mouse islets, 1 μM ASO, summary of Table 2): marginal reduction
- Islet FOXO1 mRNA levels relative to control (RPLP0) ([11]; 24 hours): 82%
- Islet FOXO1 mRNA levels relative to control (RPLP0) ([11]; 48 hours): 86%
- Islet FOXO1 mRNA levels relative to control (RPLP0) ([11]; 96 hours): 92%
